Patent US9597331B2, “Therapeutic compositions containing macitentan” (ACTELION PHARMACEUTICALS LTD, priority 2008, dated 2017)

System: pulmonary hypertensive male Wistar rats treated with monocrotaline
Assay: Acute effect on mean pulmonary arterial pressure in monocrotaline treated rats (monocrotaline model of pulmonary hypertension, variant 2)
Type: in vivo, rat
Conditions: single administration, 25 to 30 days after monocrotaline, negative area = pressure decreases
Procedure: Male Wistar rats are purchased from Harlan (Netherlands) and maintained under conditions in accordance with local guidelines (Basel-Landschaft cantonal veterinary office). All rats are housed in climate-controlled conditions with a 12:12 hour light:dark cycle, and had free access to chow and water. A telemetry system is implanted under anaesthesia by inhalation of 2.5% isoflurane (in 70% O2+30% N2O). Under aseptic conditions, a pressure radio-frequency transmitter is implanted into the peritoneal cavity, and a sensing catheter is inserted in the pulmonary artery. The transmitter is sutured to the abdominal musculature and the skin is closed. […]
Four weeks after injection of MCT, the rats become pulmonary hypertensive and the respective effects of a single oral administration of Macitentan, of the compound having prostacyclin receptor (IP) agonist properties and of their combination can be evaluated on mean pulmonary arterial pressure. […]
Mean pulmonary arterial pressure was measured over time. […] Area Under Curve (AUC) was calculated for each group of rats after the oral administration of the different treatment(s) (a positive area being found if the mean pulmonary arterial blood pressure increases and a negative area being found if the mean pulmonary arterial blood pressure decreases).

SMILES | AUC (Area Under Curve of mean pulmonary arterial pressure vs time) (macitentan 10 mg/kg per os) | AUC (Area Under Curve of mean pulmonary arterial pressure vs time) (NS-304 30 mg/kg per os)
CCCNS(=O)(=O)Nc1ncnc(OCCOc2ncc(Br)cn2)c1-c1ccc(Br)cc1 [macitentan] | −381 ± 147 | –
CC(C)N(CCCCOCC(=O)NS(C)(=O)=O)c1cnc(-c2ccccc2)c(-c2ccccc2)n1 [NS-304, 2-{4-[(5,6-diphenylpyrazin-2-yl)(isopropyl)amino]butoxy}-N-(methylsulfonyl)acetamide] | – | −99 ± 128
